Earlier results on 1 compound are cited in patent US20100098759A1, “CONTROLLED-RELEASE PREPARATION CONTAINING CILOSTAZOL AND PROCESS FOR THE PREPARATION THEREOF” (AMOREPACIFIC CORPORATION;, priority 2007, published 2010).

The structures appear in SMILES notation. Some results are limits rather than exact numbers.

With `O=C1CCc2cc(OCCCCc3nnnn3C3CCCCC3)ccc2N1` [Cilostazol], the water-solubility was at most 1 µg/mL.
